The text below walks through data of US11590139B2, “Substituted aminopurine compounds, compositions thereof, and methods of treatment therewith” (Signal Pharmaceuticals, LLC, priority 2014, dated 2023).

For the first assay, the system named is Lox-IMVI melanoma cell line. As to the kind of experiment: Lox-IMVI anti-proliferative assay (growth inhibition, Cell Titer-Glo). The format is cell-based, human. The settings on record: Homo sapiens; IC50 activity level in the cell-based Lox-IMVI anti-proliferative assay; read-out: Activity. The gist of the method: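 Luminescence from cellular ATP measured viability at compound addition and again after 72 h of exposure (37 °C, 5% CO2, RPMI + 10% FBS). Doses spanned 0.5 nM to 10 μM in ten 3-fold steps with 0.2% DMSO. Values were fitted as % of DMSO-treated cells by sigmoidal dose-response.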
For orientation: ATP-based viability assays read luminescence as a measure of living cells.
`NC(=O)[C@H]1CC[C@@H](n2c(Nc3c(F)cccc3F)nc3cnc(N[C@@H]4CCC[C@H]4O)nc32)CC1` [Example 251, (1S,4s)-4-(8-(2,6-difluorophenylamino)-2-((1R,2R)-2-hydroxycyclopentylamino)-9H-purin-9-yl)cyclohexanecarboxamide]: the IC50 was > 1000 nM.

Consider `NC(=O)[C@H]1CC[C@@H](n2c(Nc3c(F)cc(Cl)cc3F)nc3cnc(N[C@@H]4CC[C@@H](O)C4)nc32)CC1` [Example 215, (1S,4s)-4-(8-(4-chloro-2,6-difluorophenylamino)-2-((1R,3R)-3-hydroxycyclopentylamino)-9H-purin-9-yl)cyclohexanecarboxamide], for which the IC50 was in the range of 250 to 500 nM.

For `NC(=O)[C@H]1CC[C@@H](n2c(Nc3c(F)cc(Cl)cc3F)nc3cnc(N[C@@H]4COC[C@H]4O)nc32)CC1` [Example 316, (1S,4s)-4-(8-(4-chloro-2,6-difluorophenylamino)-2-((3R,4S)-4-hydroxytetrahydrofuran-3-ylamino)-9H-purin-9-yl)cyclohexanecarboxamide], the IC50 is > 1000 nM.

In the case of `NC(=O)[C@H]1CC[C@@H](n2c(Nc3c(F)cc(Cl)cc3Cl)nc3cnc(NC4CCC4)nc32)CC1` [Example 130, (1s,4s)-4-(2-(cyclobutylamino)-8-(2,4-dichloro-6-fluorophenylamino)-9H-purin-9-yl)cyclohexanecarboxamide], the IC50 is > 1000 nM.

The same assay, now with this note: Homo sapiens; Lox-IMVI anti-proliferative assay, IC50 activity level; read-out: Activity.
In the case of `C[C@@H](CO)Nc1ncc2nc(Nc3c(F)cc(Cl)cc3Cl)n([C@H]3CC[C@@](C)(C(N)=O)CC3)c2n1` [Example 547, (1R,4s)-4-(8-(2,4-dichloro-6-fluorophenylamino)-2-((S)-1-hydroxypropan-2-ylamino)-9H-purin-9-yl)-1-methylcyclohexanecarboxamide], the IC50 was < 250 nM.

Turning to `NC(=O)[C@H]1CC[C@@H](n2c(Nc3c(Cl)cc(Cl)cc3Cl)nc3cnc(N[C@H]4CCCC[C@H]4O)nc32)CC1` [Example 514, (1R,4s)-4-(2-((1S,2R)-2-hydroxycyclohexylamino)-8-(2,4,6-trichlorophenylamino)-9H-purin-9-yl)cyclohexanecarboxamide], the IC50 was > 1000 nM.

Staying with this assay, now noted: Homo sapiens; Lox-IMVI melanoma cell line, anti-proliferative assay; read-out: Activity (IC50 activity level).
With `N#Cc1cc(F)c(Nc2nc3cnc(N[C@H]4CCC[C@H](O)C4)nc3n2[C@H]2CC[C@@H](C(N)=O)CC2)c(Cl)c1` [Example 689, (1R,4s)-4-(8-(2-chloro-4-cyano-6-fluorophenylamino)-2-((1S,3S)-3-hydroxycyclohexylamino)-9H-purin-9-yl)cyclohexanecarboxamide], the IC50 fell in the range of 250 to 500 nM.

Take `NC(=O)[C@H]1CC[C@@H](n2c(Nc3c(F)cc(F)cc3F)nc3cnc(N[C@@H]4CCCN(c5ccccc5)C4)nc32)CC1` [Example 746, (1S,4s)-4-(2-((R)-1-phenylpiperidin-3-ylamino)-8-(2,4,6-trifluorophenylamino)-9H-purin-9-yl)cyclohexanecarboxamide]: the IC50 was > 1000 nM.

`C[C@]1(C(N)=O)CC[C@@H](n2c(Nc3c(F)cc(F)cc3Cl)nc3cnc(N[C@@H]4CC[C@@H](O)C4)nc32)CC1` [Example 635, (1S,4s)-4-(8-(2-chloro-4,6-difluorophenylamino)-2-((1R,3R)-3-hydroxycyclopentylamino)-9H-purin-9-yl)-1-methylcyclohexanecarboxamide]: the IC50 fell in the range of 250 to 500 nM.

With `CNC(=O)N1CCC[C@@H](Nc2ncc3nc(Nc4c(Cl)cc(Cl)cc4Cl)n([C@H]4CC[C@@H](C(N)=O)CC4)c3n2)C1` [Example 705, (R)-3-(9-((1s,4S)-4-carbamoylcyclohexyl)-8-(2,4,6-trichlorophenylamino)-9H-purin-2-ylamino)-N-methylpiperidine-1-carboxamide], the IC50 is > 1000 nM.

With `C[C@]1(C(N)=O)CC[C@@H](n2c(Nc3c(F)cc(F)cc3F)nc3cnc(N[C@@H]4CCC[C@@H](O)C4)nc32)CC1` [Example 617, (1S,4s)-4-(2-((1R,3R)-3-hydroxycyclohexylamino)-8-(2,4,6-trifluorophenylamino)-9H-purin-9-yl)-1-methylcyclohexanecarboxamide], the IC50 was > 1000 nM.
